Data on 9 molecules can be found in patent publication US4182896A, “Indane derivatives” (Societe Hexachimie, priority 1974, dated 1980).

Assay [1] deals with SPF male rats, OFA strain. As to the kind of experiment: Anti-inflammatory activity: paw swelling after subcutaneous plantar injection of carraghenine, oral administration. The assay is classed as in vivo. As to conditions: for inhibition in vivo at 256 mg/kg: 256 mg/kg oral; for ED50: read-out: ED50 (50% effective dose), anti-inflammatory; for inhibition in vivo at 512 mg/kg: 512 mg/kg oral. As to the method: Anti-inflammatory activity
The products to be tested are administered orally to batches of 12 SPF male rats, OFA strain, weighing 120-130 g, 2 hours and 30 minutes (1/2 dose each time) before the subcutaneous plantar injection of 0.05 ml of a 1% strength solution of carraghenine. The volume of the back paw which received the phlogogenic agent is measured at regular intervals. The 50% effective dose is calculated at the moment of greatest swelling of the controls.
The results are given in Tables I to IV below, in which the percentage reduction in the inflammation is noted.

Assay [2] deals with male mice (SPF1, OF1 strain). The experiment in a line: Analgesic activity: inhibition of pain reactions (abdominal twistings) after intraperitoneal phenylbenzoquinone, oral administration. The assay is classed as in vivo. As to conditions: for inhibition in vivo at 4 mg/kg: 4 mg/kg oral; for ED50: read-out: ED50 (50% effective dose), analgesic; for inhibition in vivo at 64 mg/kg: 64 mg/kg oral. The procedure:
The products tested are administered orally to batches of 6 male mice (SPF1, OF1 strain) weighing 19-20 g.
1 hour later, 0.3 ml of a 0.02% strength solution of phenylbenzoquinone is injected intraperitoneally into each mouse and, from the 5th to the 10th minute after the latter treatment, the number of pain reactions (abdominal twistings) is counted.
Table V to VIII below give the percentage inhibition of these reactions.

[3] abbreviates: Rattus norvegicus, po, 16 mg/kg oral, carraghenine, read-out: percentage reduction in the inflammation.
Where [4] appears, read: Rattus norvegicus, po, 32 mg/kg oral, carraghenine, read-out: percentage reduction in the inflammation.
[5] abbreviates: Rattus norvegicus, po, 64 mg/kg oral, carraghenine, read-out: percentage reduction in the inflammation.
Where [6] appears, read: Rattus norvegicus, po, 128 mg/kg oral, carraghenine, read-out: percentage reduction in the inflammation.
[7] abbreviates: Rattus norvegicus, po, carraghenine, read-out: percentage reduction in the inflammation.
Where [8] appears, read: Rattus norvegicus, po, at the moment of greatest swelling of the controls.
Setting [9] is: Mus musculus, po, read-out: percentage inhibition of pain reactions.
Where [10] appears, read: Mus musculus, po, 8 mg/kg oral, read-out: percentage inhibition of pain reactions.
Where [11] appears, read: Mus musculus, po, 16 mg/kg oral, read-out: percentage inhibition of pain reactions.
Setting [12] is: Mus musculus, po, 32 mg/kg oral, read-out: percentage inhibition of pain reactions.
Where [13] appears, read: 16 mg/kg oral, rat, carraghenine.
The mark [14] stands for this setting: Mus musculus, po, 128 mg/kg oral, read-out: percentage inhibition of pain reactions.
Setting [15] is: Mus musculus, po, 256 mg/kg oral, read-out: percentage inhibition of pain reactions.

Structures can show the parent of a compound that is named as a salt.

As to `CCC1Cc2ccc(C(C)C(=O)O)cc2C1` (stereo not shown) [Example 18, 2-Methyl-[2-ethyl-indanyl-(5)]-acetic acid], the inhibition in vivo at 16 mg/kg in assay [1] (setting [3]) turned out to be 31%; in assay [2] (setting [11]) it was 75%. The inhibition in vivo at 32 mg/kg in assay [1] (setting [4]) turned out to be 54%; in assay [2] (setting [12]), 95%. The inhibition in vivo at 64 mg/kg in assay [1] (setting [5]) turned out to be 61%. Besides, the inhibition in vivo at 128 mg/kg in assay [1] (setting [6]) is 66%. For the same molecule, the inhibition in vivo at 256 mg/kg in assay [1] (setting [7]) was 77%. Further, the ED50 in assay [1] (setting [8]) turned out to be 36 mg/kg; in assay [2] (Mus musculus, po), 6.5 mg/kg. Further, the inhibition in vivo at 2 mg/kg in assay [2] (Mus musculus, po, 2 mg/kg oral, read-out: percentage inhibition of pain reactions) turned out to be 18%. The inhibition in vivo at 4 mg/kg in assay [2] (setting [9]) came to 27%. Besides, the inhibition in vivo at 8 mg/kg in assay [2] (setting [10]) was 58%.

Turning to `CC(C(=O)O)c1ccc2c(c1)CC(C(C)C)C2` (stereo not shown) [Example 19, Dimethylaminoethanol salt of 2-methyl-[2-isopropyl-indanyl-(5)]-acetic acid], the “percentage reduction in the inflammation” value in assay [1] (8 mg/kg oral, rat, carraghenine) turned out to be 20%; in assay [1] (setting [13]) it was 44%; in assay [1] (32 mg/kg oral, rat, carraghenine), 48%; in assay [1] (64 mg/kg oral, rat, carraghenine) it was 63%; in assay [1] (128 mg/kg oral, rat, carraghenine) it was 67%. Moreover, the inhibition in vivo at 4 mg/kg stood at 25% in assay [1] (Rattus norvegicus, po, 4 mg/kg oral, carraghenine, read-out: percentage reduction in the inflammation) and 5% in assay [2] (setting [9]). The inhibition in vivo at 256 mg/kg in assay [1] (setting [7]) was 82%. The “ED50 (50% effective dose), anti-inflammatory” value in assay [1] (oral, rat, at the moment of greatest swelling of the controls) was found to be 30 mg/kg. Besides, the “percentage inhibition of pain reactions” value in assay [2] (8 mg/kg oral, mouse) is recorded as 31%; in assay [2] (16 mg/kg oral, mouse), 54%; in assay [2] (32 mg/kg oral, mouse), 82%. Besides, the inhibition in vivo at 64 mg/kg in assay [2] (setting [9]) worked out at 96%. The “ED50 (50% effective dose), analgesic” value in assay [2] (oral, mouse) is listed as 14 mg/kg.

With `CCC(C(=O)O)c1ccc2c(c1)CC(C(C)C)C2` (stereo not shown) [Example 20, Dimethylaminoethanol salt of 2-ethyl-[2-isopropyl-indanyl-(5)]-acetic acid], the “percentage reduction in the inflammation” value in assay [1] (setting [13]) stood at 16%. The results for the inhibition in vivo at 32 mg/kg in assay [1] (setting [4]) and in assay [2] (setting [12]) were 24% and 26%, respectively. Also, the inhibition in vivo at 64 mg/kg in assay [1] (setting [5]) is 25%. Moreover, the inhibition in vivo at 128 mg/kg in assay [1] (setting [6]) is 38%. Further, the inhibition in vivo at 256 mg/kg in assay [1] (setting [7]) was 37%. Moreover, the ED50 in assay [1] (setting [8]) was > 256 mg/kg; in assay [2] (Mus musculus, po), 175 mg/kg. Further, the “percentage inhibition of pain reactions” value in assay [2] (128 mg/kg oral, mouse) is on record as 27%; in assay [2] (256 mg/kg oral, mouse) it was 74%; in assay [2] (512 mg/kg oral, mouse), 100%.

In the case of `CC1Cc2ccc(CC(=O)OCCN3CCOCC3)cc2C1` (stereo not shown) [Example 21, Hydrochloride of the morpholino-ethyl ester of [2-methyl-indanyl-(5)]-acetic acid], the inhibition in vivo at 32 mg/kg in assay [1] (setting [4]) came out at 17%. The results for the inhibition in vivo at 64 mg/kg in assay [1] (setting [5]) and in assay [2] (setting [9]) were 25% and 2%, respectively. Further, the inhibition in vivo at 128 mg/kg in assay [1] (setting [6]) amounted to 52%; in assay [2] (setting [14]), 51%. Further, the results for the inhibition in vivo at 256 mg/kg in assay [1] (setting [7]) and in assay [2] (setting [15]) were 68% and 71%, respectively. For the same molecule, the ED50 in assay [1] (setting [8]) stood at 130 mg/kg; in assay [2] (Mus musculus, po), 200 mg/kg. Besides, the inhibition in vivo at 512 mg/kg in assay [2] (Mus musculus, po, 512 mg/kg oral, read-out: percentage inhibition of pain reactions) turned out to be 81%.

As to `CC1Cc2ccc(C(C)C(=O)OCCN3CCOCC3)cc2C1` (stereo not shown) [Example 22, Oxalate of the morpholino-ethyl ester of 2-methyl-[2-methyl-indanyl-(5)]-acetic acid], the inhibition in vivo at 16 mg/kg is 17% in assay [1] (setting [3]) and 13% in assay [2] (setting [11]). For the same molecule, the inhibition in vivo at 32 mg/kg in assay [1] (setting [4]) amounted to 7%; in assay [2] (setting [12]) it was 19%. The results for the inhibition in vivo at 64 mg/kg in assay [1] (setting [5]) and in assay [2] (setting [9]) were 12% and 73%, respectively. Moreover, the inhibition in vivo at 128 mg/kg in assay [1] (setting [6]) came out at 11%; in assay [2] (setting [14]), 86%. The inhibition in vivo at 256 mg/kg worked out at 34% in assay [1] (setting [7]) and 98% in assay [2] (setting [15]). For the same molecule, the inhibition in vivo at 512 mg/kg in assay [1] (setting [7]) was determined as 52%. In addition, the ED50 is 480 mg/kg in assay [1] (setting [8]) and 45 mg/kg in assay [2] (Mus musculus, po).

For `CC1(C)Cc2ccc(CC(=O)OCCN3CCOCC3)cc2C1` [Example 23, Hydrochloride of the morpholino-ethyl ester of [2,2-dimethyl-indanyl-(5)]-acetic acid], the inhibition in vivo at 32 mg/kg in assay [1] (setting [4]) turned out to be 9%; in assay [2] (setting [12]), 36%. In addition, the inhibition in vivo at 64 mg/kg in assay [1] (setting [5]) stood at 30%; in assay [2] (setting [9]), 82%. For the same molecule, the results for the inhibition in vivo at 128 mg/kg in assay [1] (setting [6]) and in assay [2] (setting [14]) were 50% and 45%, respectively. The inhibition in vivo at 256 mg/kg in assay [1] (setting [7]) was 55%; in assay [2] (setting [15]), 45%. For the same molecule, the inhibition in vivo at 512 mg/kg in assay [1] (setting [7]) turned out to be 90%. Moreover, in assay [1] (setting [8]), the ED50 was determined as 140 mg/kg. In assay [2] (setting [10]), the inhibition in vivo at 8 mg/kg is 1%. Further, the inhibition in vivo at 16 mg/kg in assay [2] (setting [11]) stood at 20%.

For the molecule `CC(C(=O)OCCN1CCOCC1)c1ccc2c(c1)CC(C)(C)C2` (stereo not shown) [Example 24, Hydrochloride of the morpholino-ethyl ester of 2-methyl-[2,2-dimethyl-indanyl-(5)]-acetic acid], the inhibition in vivo at 16 mg/kg in assay [1] (setting [3]) turned out to be 7%; in assay [2] (setting [11]), 24%. In addition, the inhibition in vivo at 32 mg/kg in assay [1] (setting [4]) is 21%; in assay [2] (setting [12]) it was 32%. The inhibition in vivo at 64 mg/kg in assay [1] (setting [5]) was determined as 36%; in assay [2] (setting [9]) it was 53%. For the same molecule, the inhibition in vivo at 128 mg/kg in assay [1] (setting [6]) was found to be 50%; in assay [2] (setting [14]) it was 97%. In assay [1] (setting [7]), the inhibition in vivo at 256 mg/kg was found to be 57%. Besides, the inhibition in vivo at 512 mg/kg in assay [1] (setting [7]) is 73%. In addition, the ED50 in assay [1] (setting [8]) was determined as 142 mg/kg; in assay [2] (Mus musculus, po), 35 mg/kg. Besides, the inhibition in vivo at 8 mg/kg in assay [2] (setting [10]) was 0%.

Regarding `CC(C(=O)OCCN1CCOCC1)c1ccc2c(c1)CC(C1CCCCC1)C2` (stereo not shown) [Example 25, Hydrochloride of the morpholino-ethyl ester of 2-methyl-[2-cyclohexyl-indanyl-(5)]-acetic acid], the inhibition in vivo at 16 mg/kg in assay [1] (setting [3]) is 26%. For the same molecule, the inhibition in vivo at 32 mg/kg is 28% in assay [1] (setting [4]) and 19% in assay [2] (setting [12]). Besides, the results for the inhibition in vivo at 64 mg/kg in assay [1] (setting [5]) and in assay [2] (setting [9]) were 7% and 50%, respectively. For the same molecule, the inhibition in vivo at 128 mg/kg in assay [1] (setting [6]) was found to be 12%; in assay [2] (setting [14]), 64%. Also, the inhibition in vivo at 256 mg/kg in assay [1] (setting [7]) amounted to 10%. For the same molecule, the ED50 in assay [1] (setting [8]) is > 256 mg/kg; in assay [2] (Mus musculus, po) it was 80 mg/kg.

For the molecule `CCC1Cc2ccc(C(C)C(=O)OCCN3CCOCC3)cc2C1` (stereo not shown) [Example 26, Oxalate of the morpholino-ethyl ester of 2-methyl-[2-ethyl-indanyl-(5)]-acetic acid], the inhibition in vivo at 16 mg/kg in assay [1] (setting [3]) was found to be 38%; in assay [2] (setting [11]) it was 52%. The inhibition in vivo at 32 mg/kg in assay [1] (setting [4]) is 47%; in assay [2] (setting [12]) it was 69%. In addition, the inhibition in vivo at 64 mg/kg in assay [1] (setting [5]) was found to be 54%; in assay [2] (setting [9]), 94%. Besides, in assay [1] (setting [6]), the inhibition in vivo at 128 mg/kg is 68%. For the same molecule, the inhibition in vivo at 256 mg/kg in assay [1] (setting [7]) is 70%. For the same molecule, the ED50 came out at 40 mg/kg in assay [1] (setting [8]) and 18 mg/kg in assay [2] (Mus musculus, po). The inhibition in vivo at 8 mg/kg in assay [2] (setting [10]) was 17%.

For orientation: ED50 means the midpoint of the dose-response relation.
